The record followed here is ChEMBL document CHEMBL1201862, “PubChem BioAssay data set” (2004).

The structures appear in SMILES notation.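 Interpolation was linear, between the two tested concentrations surrounding the appropriate level; five concentrations were tested over 48 hours in 96-well plates. GI50 is the concentration that inhibits growth by half.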 Active and inactive are the calls of the source. No stated cut-off is given here; in the data, active = GI50 up to about 1.1 µM and inactive = higher.

What all share (assay): DTP human tumour cell line panel, 48 h
Assay [1] relates to OVCAR-3.
For assay [2], the system named is CAKI-1.
Assay [3] concerns CCRF-CEM.
Assay [4] deals with LOX IMVI.
Assay [5] concerns UACC-62.
The test system of assay [6] is NCI-H23.
Assay [7] deals with SK-MEL-28.
Assay [8] deals with HCT-15.
In assay [9] the test system is NCI-H522.
In assay [10] the test system is SF-539.
Assay [11] has as its system SR.
The subject of assay [12] is NCI-H460.
The subject of assay [13] is SK-OV-3.
For assay [14], the system named is HT-29.
In assay [15] the test system is TK-10.
The test system of assay [16] is UO-31.
The subject of assay [17] is SNB-19.
Assay [18] concerns MOLT-4.
For assay [19], the system named is SK-MEL-2.
Assay [20] deals with SF-295.

Take `COc1ccc2c(c1)C(=O)C1CC(=O)CCC21` (stereo not given): the GI50 in assay [1], in assay [2], in [3], in assay [4], in assay [5] and in assay [6] was > 100 µM (inactive) throughout. In addition, the GI50 (usually the concentration giving 50% growth inhibition) in [7] is > 100 µM (inactive); in [8] it was greater than 100 µM; in [9], > 100 µM (inactive); in [10], > 100 µM (inactive); in assay [11], > 100 µM (inactive); in assay [12], > 100 µM (inactive). Besides, the GI50 in [13], in assay [14], in assay [15], in assay [16], in assay [17] and in [18] was > 100 µM (inactive) each time. In addition, the GI50 in [19] and in assay [20] was > 100 µM (inactive) in each case.
For `Oc1cc(Br)cc2cccnc12`, the GI50 in assay [1] is 1.05 µM (active); in assay [2] it was 3.15 µM (inactive); in assay [3] it was 0.597 µM (active); in assay [4], 0.908 µM (active); in assay [5], 1.92 µM (inactive); in assay [6] it was 2.58 µM (inactive). For the same molecule, the GI50 is 17.3 µM (inactive) in assay [7]; 0.697 µM in assay [8]; 1.64 µM (inactive) in [9]; 2.16 µM (inactive) in [10]; 0.56 µM (active) in assay [11]; 1.31 µM (inactive) in [12]. For the same molecule, the GI50 in assay [13] was 27.6 µM (inactive); in [14] it was 8.22 µM (inactive); in assay [15] it was 31.5 µM (inactive); in assay [16], 1.5 µM (inactive); in [17], 15.6 µM (inactive); in assay [18] it was 1.35 µM (inactive). Besides, the GI50 in assay [19] was 15.6 µM (inactive); in assay [20] it was 1.67 µM (inactive).
As for `CC(C)(C)OC(=O)N/C=C1\C(=O)Oc2ccccc2C1=O`, the GI50 is 29.7 µM (inactive) in assay [1]; 15 µM (inactive) in [2]; > 100 µM (inactive) in assay [3]; 37.8 µM (inactive) in [4]; 38.4 µM (inactive) in assay [5]; 42.4 µM (inactive) in assay [6]. The GI50 was 45.1 µM (inactive) in [7]; 11.3 µM in [8]; < 0.01 µM (active) in [9]; 14.7 µM (inactive) in assay [10]; > 100 µM (inactive) in assay [11]; 33.2 µM (inactive) in assay [12]. Besides, the GI50 in [13] is 0.0294 µM (active); in [14], > 100 µM (inactive); in assay [15], 14.6 µM (inactive); in assay [16] it was 0.082 µM (active); in assay [17], 38 µM (inactive); in assay [18], > 100 µM (inactive). The GI50 in [19] is 14.6 µM (inactive); in [20] it was 38.5 µM (inactive).
In the case of `CCOC(=O)C(=C(SC)SC)c1nn2c(=O)cc(C)nc2s1`, the GI50 was 18.7 µM (inactive) in assay [1]; 24.6 µM (inactive) in assay [2]; 22.6 µM (inactive) in assay [3]; 15.7 µM (inactive) in assay [4]; 21 µM (inactive) in [5]; 32.9 µM (inactive) in assay [6]. Besides, the GI50 in assay [7] was 17.1 µM (inactive); in assay [8] it was 17.1 µM; in assay [9] it was 23 µM (inactive); in assay [10], 18.2 µM (inactive); in assay [11] it was 24.4 µM (inactive); in assay [12] it was 24 µM (inactive). For the same molecule, the GI50 in [13] is 69.7 µM (inactive); in assay [14], 20.9 µM (inactive); in [15], 23.4 µM (inactive); in assay [16], 19.5 µM (inactive); in [17], 27.2 µM (inactive); in [18], 17.7 µM (inactive). In addition, the GI50 in assay [19] is 20.1 µM (inactive); in [20], 71.8 µM (inactive).
In the case of `CCCCC1Nc2ccccc2-c2ccnc(Cl)c21` (stereo not given), the GI50 in [1] was 11.1 µM (inactive); in assay [2], 3.61 µM (inactive); in assay [3], 19.1 µM (inactive); in [4] it was 16.6 µM (inactive); in assay [5], 13.7 µM (inactive); in [6] it was 16.5 µM (inactive). Also, the GI50 was 17.8 µM (inactive) in assay [7]; 16.9 µM in assay [8]; 11.7 µM (inactive) in assay [9]; 19.2 µM (inactive) in assay [10]; 18.7 µM (inactive) in assay [11]; 32.1 µM (inactive) in [12]. Also, the GI50 in assay [13] is 20.3 µM (inactive); in assay [14], 10.8 µM (inactive); in assay [15] it was 33 µM (inactive); in assay [16], 20 µM (inactive); in assay [17], 24.1 µM (inactive); in assay [18] it was 17.8 µM (inactive). The GI50 is 16.8 µM (inactive) in [19] and 21.5 µM (inactive) in assay [20].
As to `CC1(/C=C/CCSc2ccccc2)CC(=O)C2CC1C2(C)C` (stereo not given), the GI50 in [1] was 23.1 µM (inactive); in assay [2], 26.6 µM (inactive); in assay [3], 6.49 µM (inactive); in assay [4], 14.8 µM (inactive); in assay [5], 8.04 µM (inactive); in [6], 12.1 µM (inactive). For the same molecule, the GI50 is 25.1 µM (inactive) in assay [7]; 15.8 µM in assay [8]; 13 µM (inactive) in assay [9]; 7.96 µM (inactive) in assay [10]; 3.19 µM (inactive) in [11]; 17.3 µM (inactive) in assay [12]. Also, the GI50 in assay [13] is > 72.4 µM (inactive); in assay [14], 12.4 µM (inactive); in [15], 14.9 µM (inactive); in [16] it was 5.61 µM (inactive); in assay [17], 35.8 µM (inactive); in assay [18], 4.67 µM (inactive). Further, the GI50 was 14.3 µM (inactive) in [19] and 21 µM (inactive) in assay [20].
On to `Cc1ccc(S(=O)(=O)N2CCCC2C(=O)O[C@H]2CC[C@H]3CC=C[C@H]32)cc1` (stereo not given in full), for which the GI50 was > 100 µM (inactive) in [1]; > 100 µM (inactive) in [2]; 13.8 µM (inactive) in assay [3]; 20.7 µM (inactive) in assay [4]; 97.3 µM (inactive) in [5]; 35.6 µM (inactive) in [6]. For the same molecule, the GI50 is 29.9 µM (inactive) in assay [7]; greater than 10 µM in assay [8]; > 10 µM (inactive) in assay [9]; > 10 µM (inactive) in assay [10]; 24.9 µM (inactive) in assay [11]; 27 µM (inactive) in assay [12]. Besides, the GI50 in [13] is 33.7 µM (inactive); in assay [14], 40.3 µM (inactive); in assay [15], > 10 µM (inactive); in assay [16], 29.9 µM (inactive); in [17] it was 76.9 µM (inactive); in assay [18], 7.89 µM (inactive). Besides, the GI50 was > 10 µM (inactive) in assay [19] and 23.7 µM (inactive) in assay [20].
